From doi:10.1101/2023.08.21.552681v1 (biorxiv, 2023)

Molecular target: T1, ctdWDR91 (Homo sapiens, UniProt A4D1P6)
T1 sequence (A4D1P6 392-747): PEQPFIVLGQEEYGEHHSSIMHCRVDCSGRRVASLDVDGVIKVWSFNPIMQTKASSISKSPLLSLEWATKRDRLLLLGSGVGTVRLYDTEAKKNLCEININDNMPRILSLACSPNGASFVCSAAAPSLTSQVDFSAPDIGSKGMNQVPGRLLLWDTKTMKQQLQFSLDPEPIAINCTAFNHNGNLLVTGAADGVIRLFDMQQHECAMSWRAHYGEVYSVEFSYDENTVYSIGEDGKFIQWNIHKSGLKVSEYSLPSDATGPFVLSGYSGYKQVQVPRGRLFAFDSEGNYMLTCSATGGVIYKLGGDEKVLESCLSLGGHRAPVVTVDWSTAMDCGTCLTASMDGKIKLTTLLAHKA
Assay: biochemical

SMILES | Kd [µM]
O=C(Nc1cccc2cnccc12)c1cccc([N+](=O)[O-])c1 [MRGG044720b] | > 45
COc1cc(C)nc(NC(=O)c2ccoc2C2CC2)n1 [MRGG044772b] | > 45
Cc1cc(N2CCN(C(=O)c3cc(F)c(F)cc3[N+](=O)[O-])CC2)c(F)cc1[N+](=O)[O-] [MRGG044777a] | > 45
O=[N+]([O-])c1ccc(N2CCCC2)cc1NCc1ccc(Cl)cc1 [MRGG044778a] | > 45
Cc1c(C#N)c2ccccc2n1CC(=O)N1CCc2ccccc2C1 [MRGG044779a] | > 45
O=C(NCc1ccc2c(c1)OCO2)c1ccc2snnc2c1 [MRGG044780a] | 17
O=c1c2c(F)cccc2ncn1CC1CCN(C2CC2)C1 (stereo not drawn) [MRGG044781a] | > 45
O=C(NCc1ccc2nonc2c1)c1cn2ccsc2n1 [MRGG044782a] | > 45
O=C(NC1CC2(CCCC2)Oc2ccccc21)c1cnc2ccccn2c1=O (stereo not drawn) [MRGG044783a] | > 45
Cc1c(C(=O)NCc2n[nH]c(N)n2)n(C)c2ccc(F)cc12 [MRGG044784a] | > 45
CN(CCc1ccccc1)C(=O)c1nc2sccn2c1CN1CC[C@H](O)C1 [MRGG044785a] | > 45
Cc1ccccc1N1CCC(CNC(=O)Cc2ccc(C(F)(F)F)cc2)C1 (stereo not drawn) [MRGG044786a] | > 45
COc1cccc2c1OCCCN(C(=O)c1cn3ccsc3n1)C2 [MRGG044787a] | > 45
O=C(NC1CCc2ccccc21)c1ccc(Cl)cc1 (stereo not drawn) [MRGG044788a] | > 45
Cc1cc2ccccc2n1CC(=O)Nc1cc(C(N)=O)ccc1N1CCCC1 [MRGG044789a] | > 45
O=C(Cc1cn2ccsc2n1)NC1(c2ccc(Cl)cc2)CC1 [MRGG044790a] | > 45
CC(NC(=O)c1ccc2c(c1)NC(=O)CO2)c1cccc(Cl)c1 (stereo not drawn) [MRGG044791a] | 36
NC(=O)[C@]12CCOC[C@H]1CN(C(=O)c1cccc(N3CCCC3)c1)C2 [MRGG044792a] | > 45
CNC(=O)[C@@H](NC(=O)c1ccc2[nH]ccc2n1)C(C)C [MRGG044793a] | > 45
COc1ccc(C(NC(=O)CN2CCn3ncnc3C2)c2ccc(OC)cc2)cc1 [MRGG044794a] | > 45
Fc1ccc(N2CCC(CNc3ncnc4ccncc34)C2)cc1F (stereo not drawn) [MRGG044795a] | > 45
CC(NC(=O)c1cccc(N2CCCC2)c1)(C(=O)O)c1ccccc1 (stereo not drawn) [MRGG044796a] | > 45
CN(C)C1(CNC(=O)c2ccc3oc(=O)[nH]c3c2)Cc2ccccc2C1 [MRGG044797a] | > 45

SMILES | Kd [µM]
Cc1cc(C#N)nc(NC2CC(C)N(C3CC3)C2)n1 (stereo not drawn) [MRGG044798a] | > 45
CN(C)c1nc2ccc(NCc3cc4c(cc3O)OCO4)cc2o1 [MRGG044799a] | > 45
O=C1Cc2ccc(C(=O)NC3Cc4ccccc4C3O)cc2N1 (stereo not drawn) [MRGG044800a] | > 45
c1ccc2oc(-c3n[nH]cc3CNCC3CCN(C4CC4)C3)cc2c1 (stereo not drawn) [MRGG044801a] | > 45
CC1CN(C2CC2)CC1NCc1ccccc1-n1ccnc1 (stereo not drawn) [MRGG044802a] | > 45
CC1CN(C2CC2)CC1NS(=O)(=O)c1cnn(-c2ccccc2)c1 (stereo not drawn) [MRGG044803a] | > 45
N#Cc1cc(CNc2ccccc2CN2CCNC2=O)ccc1F [MRGG044804a] | > 45
CC1CCN(c2ccc(C(=O)N3c4ccccc4CC3CO)cc2)C1 (stereo not drawn) [MRGG044805a] | > 45
N#Cc1ccc(NCc2cc(Cl)cc(C(F)(F)F)c2)cn1 [MRGG044806a] | > 45
O=C(NC1CCN(c2cccc(Cl)c2)C1)c1cccc2c1OCO2 (stereo not drawn) [MRGG044807a] | > 45
O=C(c1snc(O)c1Cl)N1CCC2(CCc3ccccc3O2)C1 (stereo not drawn) [MRGG044808a] | > 45
CC(C)(C)OC(=O)N1C[C@@H](Cc2ccccc2)[C@H](O)C1 [MRGG044809a] | > 45
N#Cc1cn(CC2CCN(c3ccccc3)C2)c(=O)[nH]c1=O (stereo not drawn) [MRGG044810a] | > 45
COc1cccc(N2CCC(CNC(=O)c3cccc(F)c3)C2)c1 (stereo not drawn) [MRGG044811a] | > 45
N#Cc1cc(Br)cc(N2CCCC2)c1 [MRGG044812a] | > 45
Cc1nc(N(C)C)sc1CCNc1cc(C(F)(F)F)cc(C#N)n1 [MRGG044814a] | > 45
NC12CCCC1CN(C(=O)c1nccc3cccnc13)C2 (stereo not drawn) [MRGG044815a] | > 45
O=C(NCC1CCN(C2CC2)C1)c1ccc(Cl)cc1 (stereo not drawn) [MRGG044816a] | > 45
CC(C)(C)OC(=O)N1CCC2(CC(N)c3ccccc3O2)C1 (stereo not drawn) [MRGG044817a] | > 45
Cc1ccc(N)cc1C(=O)N1C2C=C(c3ccccc3)CC1CC2 (stereo not drawn) [MRGG044818aAD] | > 45
CN(CC1CCN(Cc2ccccc2)C1)C(=O)Cc1cccc(O)c1 (stereo not drawn) [MRGG044819a] | > 45
N#Cc1cccc(CNC(=O)C2=NN(c3ccccc3)C(=O)CN2)c1 [MRGG044820a] | > 45
